Source: US20240158408A1, “Nitrogen-Containing Heterocyclic Compound, Pharmaceutical Compositions thereof and Use thereof” (280 Bio, Inc., priority 2022, published 2024)
Read-outs that look alike come from different tables or passages of the source.

Target: PI3Kα (Homo sapiens (Human), UniProt P42336)
Assay: ADP-Glo Kinase Assay, PI3Kα enzyme activity inhibition
Conditions: for IC50: PI3Kaα IC50, ADP-Glo
[1] = ADP-Glo, ATP 25 μM, PIP2 50 μg/mL, 1 hour at room temperature
[2] = ATP 25 μM, PIP2 50 μg/mL, 1 hour at room temperature

Sequence of PI3Kα (P42336 whole entry): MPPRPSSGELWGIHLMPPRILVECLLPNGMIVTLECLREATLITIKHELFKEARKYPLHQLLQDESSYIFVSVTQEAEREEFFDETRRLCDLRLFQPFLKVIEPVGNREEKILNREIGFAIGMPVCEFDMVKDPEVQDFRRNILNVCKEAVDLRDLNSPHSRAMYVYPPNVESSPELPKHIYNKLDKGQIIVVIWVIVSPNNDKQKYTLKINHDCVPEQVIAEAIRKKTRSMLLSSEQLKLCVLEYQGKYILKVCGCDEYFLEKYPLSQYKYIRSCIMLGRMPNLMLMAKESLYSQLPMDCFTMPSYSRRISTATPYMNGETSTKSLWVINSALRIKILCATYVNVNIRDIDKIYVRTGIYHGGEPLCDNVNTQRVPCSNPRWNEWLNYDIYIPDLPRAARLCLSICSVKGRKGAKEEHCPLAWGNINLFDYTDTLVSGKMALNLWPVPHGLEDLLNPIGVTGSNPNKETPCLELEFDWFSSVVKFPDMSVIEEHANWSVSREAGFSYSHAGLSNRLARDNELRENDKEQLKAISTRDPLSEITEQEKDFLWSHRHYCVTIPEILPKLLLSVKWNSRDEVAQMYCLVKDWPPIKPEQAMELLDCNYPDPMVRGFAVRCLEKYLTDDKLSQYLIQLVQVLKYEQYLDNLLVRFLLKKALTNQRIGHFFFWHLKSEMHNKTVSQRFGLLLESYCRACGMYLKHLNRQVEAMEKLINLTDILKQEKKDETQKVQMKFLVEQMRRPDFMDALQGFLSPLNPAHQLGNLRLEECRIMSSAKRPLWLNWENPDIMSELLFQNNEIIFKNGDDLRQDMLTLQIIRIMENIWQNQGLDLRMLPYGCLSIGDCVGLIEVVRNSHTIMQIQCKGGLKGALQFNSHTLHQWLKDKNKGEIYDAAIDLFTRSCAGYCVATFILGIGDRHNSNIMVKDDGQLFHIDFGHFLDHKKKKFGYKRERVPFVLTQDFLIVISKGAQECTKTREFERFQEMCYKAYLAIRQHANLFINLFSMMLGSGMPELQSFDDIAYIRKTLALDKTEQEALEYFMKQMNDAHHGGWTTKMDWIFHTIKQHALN
Sequence of PI3Kα (P27986 whole entry partner): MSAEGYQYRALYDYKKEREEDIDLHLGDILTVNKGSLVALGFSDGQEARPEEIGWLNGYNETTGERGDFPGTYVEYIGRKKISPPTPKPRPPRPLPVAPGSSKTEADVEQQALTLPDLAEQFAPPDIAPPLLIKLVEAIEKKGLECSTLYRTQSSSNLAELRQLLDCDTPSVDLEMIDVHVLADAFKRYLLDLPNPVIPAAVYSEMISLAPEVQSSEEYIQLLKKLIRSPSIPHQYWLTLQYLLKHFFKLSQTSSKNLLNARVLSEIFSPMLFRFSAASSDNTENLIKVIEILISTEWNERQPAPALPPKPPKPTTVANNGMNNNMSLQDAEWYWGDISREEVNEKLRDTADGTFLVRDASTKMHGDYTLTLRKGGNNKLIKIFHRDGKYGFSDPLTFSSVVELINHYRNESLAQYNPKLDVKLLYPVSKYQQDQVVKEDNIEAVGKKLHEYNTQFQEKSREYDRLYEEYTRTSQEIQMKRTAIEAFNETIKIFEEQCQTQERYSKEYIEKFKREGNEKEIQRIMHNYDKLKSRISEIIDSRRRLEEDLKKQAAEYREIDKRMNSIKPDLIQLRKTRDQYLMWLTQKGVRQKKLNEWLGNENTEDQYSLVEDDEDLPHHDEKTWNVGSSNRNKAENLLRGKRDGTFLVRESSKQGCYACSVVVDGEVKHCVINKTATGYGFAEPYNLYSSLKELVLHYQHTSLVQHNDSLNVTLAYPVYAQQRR
Method: The ADP-Glo Kinase Assay Kit was used for the experiments. The following buffer solutions were prepared: 50 mM HEPES, pH 7.5, 3 mM MgCl2, 1 mM EGTA, 100 mM NaCl, 0.03% CHAPS, 2 mM DTT. The tested compound samples were dissolved in DMSO and added to the screening system at a certain starting concentration of, for example, 10 μM, diluted 3-fold, while setting a DMSO control and an unkinase control. […] The reaction system was reacted at room temperature for 1 hour, then terminated by adding a terminal reagent (ADP-Glo reagent, 5 μL), and the ADP content in the system was detected using a detection reagent (Kinase Detection Reagent, 10 μL). Signal data was collected using the Envision instrument. Calculated the % inhibition according to the following formula: % inhibition=(DMSO control signal value−sample signal value)! (DMSO control signal value −unkinase control signal value).

Compound | PI3Kaα IC50 [1] | other results
N#Cc1cc(NC(=O)c2cc(F)cc(C(F)(F)F)c2)c2c3c1CCN3C(=O)NC2c1cc(Cl)ccc1Cl (single isomer, unassigned) [YL101-P2] | +++ (+++ represents IC50>10 μM) | 
Cc1n[nH]c(C(F)(F)F)c1-c1cc(NC(=O)c2cc(F)cc(C(F)(F)F)c2)c2c3c1CCN3C(=O)NC2c1cc(F)ccc1Cl (centres unmarked) [YL072] | ++ (++ represents 250 nM<IC50<=10 μM) | 
N#Cc1cc2ncnn2cc1-c1cc(NC(=O)c2cc(F)cc(C(F)(F)F)c2)c2c3c1CCN3C(=O)NC2c1cc(F)ccc1Cl (centres unmarked) [YL153] | +++ (+++ represents IC50>10 μM) | 
O=C1NC(c2cc(F)ccc2Cl)c2c(-c3nc4c(F)cc(C(F)(F)F)cc4[nH]3)ccc3c2N1CC3 (centres unmarked) [YL032] | ++ (++ represents 250 nM<IC50<=10 μM) | 
Cn1nc(C(F)(F)F)cc1-c1cc(NC(=O)c2cc(F)cc(C(F)(F)F)c2)c2c3c1CCN3C(=O)NC2c1cc(F)ccc1Cl (centres unmarked) [YL014] | ++ (++ represents 250 nM<IC50<=10 μM) | 
N#Cc1c(-c2cc(NC(=O)c3cc(F)cc(C(F)(F)F)c3)c3c4c2CCN4C(=O)NC3c2cc(Cl)ccc2Cl)ccc2ncnn12 (single isomer, unassigned) [YL109-P2] |  | IC50 [2]: > 10 µM
Nc1cc(-c2cc(NC(=O)c3cc(F)cc(C(F)(F)F)c3)c3c4c2CCN4C(=O)NC3c2cc(F)ccc2Cl)[nH]n1 (centres unmarked) [YL053] | ++ (++ represents 250 nM<IC50<=10 μM) | 
O=C(Nc1cc(-c2cnoc2)c2c3c1C(c1cc(F)ccc1Cl)NC(=O)N3CC2)c1cc(F)cc(C(F)(F)F)c1 (centres unmarked) [YL018] | ++ (++ represents 250 nM<IC50<=10 μM) | 
O=C(Nc1cc(-c2c(C(F)(F)F)n[nH]c2C2CC2)c2c3c1C(c1cc(F)ccc1Cl)NC(=O)N3CC2)c1cc(F)cc(C(F)(F)F)c1 (centres unmarked) [YL048] | ++ (++ represents 250 nM<IC50<=10 μM) | 
O=C1NC(c2cc(F)ccc2Cl)c2c(Nc3nccc4c(C(F)(F)F)cc(F)cc34)cc(F)c3c2N1CC3 (centres unmarked) [YL045] | +++ (+++ represents IC50>10 μM) | 
CC(C)n1nc2ccc(NC(=O)c3cc(F)cc(C(F)(F)F)c3)c3c2c1C(=O)NC3c1cc(F)ccc1Cl (centres unmarked) [YL118] |  | PI3Kaα IC50: ++ (key: +represents IC50<=250 nM; ++ represents 250 nM<IC50<=10 μM; +++ represents IC50>10 μM)
O=C(Nc1cc(F)cc(C(F)(F)F)c1)Nc1cc(Br)c2c3c1C(c1cc(F)ccc1Cl)NC(=O)N3CC2 (centres unmarked) [YL122] | +++ (+++ represents IC50>10 μM) | 
Nc1n[nH]cc1-c1cc(NC(=O)c2cc(F)cc(C(F)(F)F)c2)c2c3c1CCN3C(=O)NC2c1cc(F)ccc1Cl (centres unmarked) [YL073] |  | IC50 [2]: 0.25 to 10 µM
N#Cc1ccc(-c2cc(NC(=O)c3cc(F)cc(C(F)(F)F)c3)c3c4c2CCN4C(=O)NC3c2cc(F)ccc2Cl)c(N)n1 (centres unmarked) [YL134] | +++ (+++ represents IC50>10 μM) | 
N=C(N)Nc1cc(NC(=O)c2cc(F)cc(C(F)(F)F)c2)c2c3c1CCN3C(=O)NC2c1cc(F)ccc1Cl (centres unmarked) [YL088] |  | IC50 [2]: 0.25 to 10 µM
N#Cc1ccc(-c2cc(NC(=O)c3cc(F)cc(C(F)(F)F)c3)c3c4c2CCN4C(=O)NC3c2cc(Cl)ccc2Cl)c(N)n1 (centres unmarked) [YL130] | +++ (+++ represents IC50>10 μM) | 
N#Cc1ncccc1-c1cc(NC(=O)c2cc(F)cc(C(F)(F)F)c2)c2c3c1CCN3C(=O)NC2c1cc(F)ccc1Cl (centres unmarked) [YL136] | ++ (++ represents 250 nM<IC50<=10 μM) | 
COc1c(-c2cc(NC(=O)c3cc(F)cc(C(F)(F)F)c3)c3c4c2CCN4C(=O)NC3c2cc(F)ccc2Cl)ccc2ncnn12 (centres unmarked) [YL146] | +++ (+++ represents IC50>10 μM) | 
O=C1NC(c2cc(F)ccc2Cl)c2c(Nc3ncnc4c(Cl)cc(F)cc34)ccc3c2N1CC3 (centres unmarked) [YL052] | +++ (+++ represents IC50>10 μM) | 
O=C(Nc1cc(-c2ccn[nH]2)c2c3c1C(c1cc(F)ccc1Cl)NC(=O)N3CC2)c1cc(F)cc(C(F)(F)F)c1 (centres unmarked) [YL054] | ++ (++ represents 250 nM<IC50<=10 μM) | 
O=C(Nc1cc(Br)c2c3c1C(c1cccc(F)c1)NC(=O)N3CC2)c1cc(F)cc(C(F)(F)F)c1 (centres unmarked) [YL062] | +++ (+++ represents IC50>10 μM) | 
Nc1cc(-c2cc(Nc3nccc4c(C(F)(F)F)cc(F)cc34)c3c4c2CCN4C(=O)NC3c2cc(F)ccc2Cl)n[nH]1 (centres unmarked) [YL044] | ++ (++ represents 250 nM<IC50<=10 μM) | 
O=C(Nc1cc(O)c2c3c1C(c1cc(F)ccc1Cl)NC(=O)N3CC2)c1cc(F)cc(C(F)(F)F)c1 (centres unmarked) [YL076] |  | IC50 [2]: 0.25 to 10 µM
Cc1nc[nH]c1-c1cc(NC(=O)c2cc(F)cc(C(F)(F)F)c2)c2c3c1CCN3C(=O)NC2c1cc(F)ccc1Cl (centres unmarked) [YL068] | ++ (++ represents 250 nM<IC50<=10 μM) | 
N#Cc1c(N)cccc1-c1cc(NC(=O)c2cc(F)cc(C(F)(F)F)c2)c2c3c1CCN3C(=O)NC2c1cc(Cl)ccc1Cl (centres unmarked) [YL132] | +++ (+++ represents IC50>10 μM) | 
O=C(Nc1cc(Br)c2c3c1C(c1ccccc1)NC(=O)N3CC2)c1cc(F)cc(C(F)(F)F)c1 (centres unmarked) [YL064] | +++ (+++ represents IC50>10 μM) | 
N#Cc1c(-c2cc(NC(=O)c3cc(F)cc(C(F)(F)F)c3)c3c4c2CCN4C(=O)NC3c2cc(F)ccc2Cl)ccc2ncnn12 (single isomer, unassigned) [YL108-P2] |  | IC50 [2]: > 10 µM
Cn1nc2c(C#N)cc(NC(=O)c3cc(F)cc(C(F)(F)F)c3)c3c2c1C(=O)NC3c1cc(Cl)ccc1Cl (single isomer, unassigned) [YL111-P2] |  | IC50 [2]: > 10 µM
O=C1NC(c2cc(F)ccc2Cl)c2c(Nc3nccc4c(C(F)(F)F)cc(F)cc34)cc(Br)c3c2N1CC3 (centres unmarked) [YL042] | ++ (++ represents 250 nM<IC50<=10 μM) | 
